Entries after “also recorded” stand apart in the source; their conditions may differ. Where two headings read alike, the source gives them in different places. Where no end group is shown, it is not given here.
Key:
Format in all cases: cell-based, human
[1] = system: endogenous GPCRs in A431 cells; assay: DMR optical biosensor profiling of GPCR agonists; conditions: for Class of optical signature (DMR) induced by agonist: quiescent A431, first class = Gq-type, second = Gs-type, third = Gi-type, fourth = no significant DMR; for Dose-dependent switching of optical signature: fully quiescent A431 cells
Method: Human epidermoid carcinoma A431 cells (American Type Cell Culture) were grown in Dulbecco's modified Eagle's medium (DMEM) supplemented with 10% fetal bovine serum (FBS), 4.5 g/liter glucose, 2 mM glutamine, and antibiotics. ˜3-7.5×10^4 cells at passage 3 to 5 suspended in 200 μl the DMEM medium containing 10% FBS were placed in each well of a 96 well microplate. Similarly ˜1-2×10^4 cells in 50 μl the growth medium were placed in each well of a 384 well microplate. After cell seeding, the cells were cultured at 37° C. under air/5% CO2 until ˜95% confluency was reached (˜2-4 days).
A Corning® Epic™ angular interrogation system with transverse magnetic or p-polarized TM0 mode was used for all studies. Several extra actions were taken to minimize the unwanted effects. First, to minimize the bulk index changes when a compound solution is introduced, 1×HBSS buffer without any probenecid was used to dilute all the compounds, whereas the DMEM buffer only was used to starve the cells. Secondly, to facilitate the cell responses as well as to rapidly reach a steady state when the sensor plates having cells were placed in the system at room temperature, the cells were pre-starved with the DMEM buffer without any FBS for a prolonged period of time (typically 20±2 hours), and the quiescent cells were directly used for assays without any wash.
For kinetics measurements, the cultured cells (˜95% confluency) were starved for about 20 hours with DMEM alone at 37° C. under air/5% CO2. Afterwards, the sensor microplate containing cells was placed into the optical system, and the cell responses were recorded before and after addition of a solution at room temperature. […] All studies were carried out at room temperature with the lid of the microplate on except for a short period of time (˜seconds) when the solution was introduced, in order to minimize the effect of temperature fluctuation and evaporative cooling. The unit of the responses indicated herein was a change in pixel of the central position of the resonant band of each sensor as imaged by a CCD camera; 1 unit equals to ˜5.82×10^−4 refractive index changes, based on an experimental normalization protocol, which uses the concentration-dependent responses of both glycerol and dimethyl sulfoxide.
The panel of agonists were used individually to stimulate quiescent A431 cells. The dose-dependent and kinetic responses were recorded and analyzed. In a typical kinetic measurement, the angular shift of resonant lights of each sensor induced by an agonist is monitored in real time and plotted as a function of time. An increased signal (P-DMR) means an increase in the amount of bio-molecules within the sensing volume (˜120 nm); conversely, a decreased signal (N-DMR) means a decrease in the amount of bio-molecules within the sensing volume. The sensing volume, also known as penetration depth, is an intrinsic property of the coupled light within the waveguide film, which creates an evanescent wave extending into the cell layer and the medium.

[2] = system: EGF-induced response of quiescent A431 cells; assay: Effect of compound pretreatment on EGF-induced DMR response; conditions: for Effect of pre-treatment on EGF-induced P-DMR and N-DMR signals: starved A431 cells, 8 nM EGF, 30-minute pretreatment, GH 0.5 ng/ml, PD98059 0.1 mM, PP1 1 μM, wortmannin 0.1 μM, DIP 50 μM
Method: Both A431 and CHO-K1 cells were grown in Dulbecco's modified Eagle's medium (DMEM) supplemented with 10% fetal calf serum, 100 μg/ml penicillin, and 100 μg/ml streptomycin. For cell culture, certain numbers of cells (2×10^5 to 1×10^6), either A431 or CHO-K1, were suspended in […] medium were placed in each well of a 96 well Corning Epic Biosensor microplate, and were cultured at 37° C. in air/5% CO2 for certain time until the cell density reached ˜90% and above (unless specified). The resulted cells were termed as “profilerating” cells. The “quiescent” cells were obtained by culturing the profilerating cells of desired confluencies with a medium containing no or little (˜0.1% fetal bovine serum (FBS)) for at least 16 hours.
During the assays, the cells in 100 μl medium were subject to two 25 μl HBSS buffer containing 20 mM HEPES, pH 7.4, each separated by at least 15 minutes before 50 μl stimulus-containing solution was applied. During all these steps, a parallel angular interrogation system was used to monitor the real time kinetics of cellular responses. For compound effect studies, a modified protocol was used which starts with 50 μl medium, and subject to sequential treatment: 25 μl HBSS buffer twice (each separated by at least 15 minutes), 50 μl compound solution and finally 50 μl stimulus-containing solution.

[3] = system: protease activated receptors PAR1 and PAR2; assay: Fluo-3 Ca2+ mobilization assay with PAR agonists; conditions: cholesterol depletion; αCD up to 8 mM
Method: A431 at passage 3 to 5 were grown in Costar™ 96 well clear cell culture microplates until ˜95% confluency, washed twice and starved overnight with the DMEM only, washed with 1×HBSS (1× regular Hank's balanced salt solution, 20 mM HEPES buffer, pH 7.0) in the presence of 2.5 mM probenicid, and labeled in the same buffer containing 4 μM Fluo-3 for 1 hour at room temperature. The cells were then washed twice with buffer, maintained with 100 μl 1×HBSS containing 2.5 mM probenicid. The assay was initiated by transferring 50 μl PAR agonist solution to the cell plate, and calcium signal was recorded over 6 minutes with a 6 sec interval using HTS7000 BioAssay Reader (PerkinElmer Life Science, Boston, Mass.). The assays were carried out at room temperature in order to allow direct comparison with optical sensing data.

[4] = system: protease activated receptors PAR1 and PAR2; conditions: for Effect of pretreatment on DMR induced by thrombin or trypsin: 40 unit/ml thrombin, 200 nM trypsin, αCD up to 8 mM
Method: Human epidermoid carcinoma A431 cells (American Type Cell Culture) were grown in Dulbecco's modified Eagle's medium (DMEM) supplemented with 10% fetal bovine serum (FBS), 4.5 g/liter glucose, 2 mM glutamine, and antibiotics. ˜3-7.5×10^4 cells at passage 3 to 5 suspended in 200 μl the DMEM medium containing 10% FBS were placed in each well of a 96 well microplate, and were cultured at 37° C. under air/5% CO2 until ˜95% confluency was reached (˜2-4 days).
The compound or PAR agonist solutions were made in 1×HBSS in order to match the refractive index between the cell medium and compound solution, thus minimizing the unwanted effect of bulk index change due to the introduction of compound solution which can temporarily overwhelms any DMR signal as it occurs.

[5] = quiescent A431 cells, 32 nM EGF

| Compound | Class of optical signature (DMR) induced by agonist [1] | also measured |
| --- | --- | --- |
| NC[C@@H]1O[C@H](C23CC4CC(CC(C4)C2)C3)Cc2c1ccc(O)c2O [A-77636] | did not exhibited any significant DMR signals |  |
| CN1CCC(c2c[nH]c3ccc(O)cc23)CC1 [BRL 54443] | did not exhibited any significant DMR signals |  |
| C[C@@H](NC(=O)[C@@H](N)Cc1ccc(O)cc1)C(=O)NCC(=O)N(C)[C@@H](Cc1ccccc1)C(=O)NCCO [DAMGO] | did not exhibited any significant DMR signals |  |
| CC(CCCCC(=O)Nc1ccc(C(F)(F)F)cc1)NCCc1cnc[nH]1 (centres unmarked) [HTMT] |  | Dose-dependent switching of optical signature [1]: At low doses (<˜40 nM), HTMT dose-dependently resulted in a typical Gi-type optical signature; also recorded: became almost steady (i.e., no obvious DMR); also recorded: switching to a typical Gs-type optical signature |
| COC(=O)[C@@]1(OC)C[C@H]2O[C@]1(C)n1c3ccccc3c3c4c(c5c6ccccc6n2c5c31)C(=O)N(C)C4 [KT5823] |  | Effect of pretreatment on 32 nM EGF-induced response [2, 5]: little effect on the response |
| CCCCCCOC(=O)[C@]1(O)C[C@@H]2O[C@@]1(C)n1c3ccccc3c3c4c(c5c6ccccc6n2c5c31)C(=O)NC4 [KT 5720] |  | Effect of pretreatment on 32 nM EGF-induced response [2, 5]: little effect on the response |
| COc1cccc(-c2cc(=O)c3ccccc3o2)c1N [PD98059] |  | Effect of pre-treatment on EGF-induced P-DMR and N-DMR signals [2]: significantly reduced both the binding and DMR signals |
| CCCCOc1cc(CC2CNC(=O)N2)ccc1OC (centres unmarked) [Ro 20-1724] |  | Effect of pretreatment on 32 nM EGF-induced response [2, 5]: None of these inhibitors had an obvious effect on the responses |
| Oc1ccc(-c2nc(-c3ccc(F)cc3)c(-c3ccncc3)[nH]2)cc1 [SB20219] |  | Effect of pretreatment on 32 nM EGF-induced response [2, 5]: only led to a partial attenuation |
| C[S+]([O-])c1ccc(-c2nc(-c3ccncc3)c(-c3ccc(F)cc3)[nH]2)cc1 (centres unmarked) [SB203580] |  | Effect of pretreatment on 32 nM EGF-induced response [2]: only led to a partial attenuation |
| Oc1cc2c(cc1O)C(c1ccccc1)CNCC2 (centres unmarked) [SKF38392] | did not exhibited any significant DMR signals |  |
| N#CC(=C(/N)Sc1ccccc1N)/C(C#N)=C(\N)Sc1ccccc1N [U0126] |  | Effect of pretreatment on 32 nM EGF-induced response [2]: significantly compressed the amplitudes of both the P-DMR and N-DMR signals with a delayed time τ |
| Brc1c(NC2=NCCN2)ccc2nccnc12 [UK14304] | did not exhibited any significant DMR signals |  |
| CCCCC/C=C\C/C=C\C/C=C\C/C=C\CCCC(=O)NCCO [anandamide] | did not exhibited any significant DMR signals |  |
| CN(C(=O)CCCOc1ccc2[nH]c(=O)ccc2c1)C1CCCCC1 [cilostamide] |  | Effect of pretreatment on 32 nM EGF-induced response [2, 5]: None of these inhibitors had an obvious effect on the responses |
| CNC[C@H](O)c1ccc(O)c(O)c1 [epinephrine] | second class of optical signatures |  |
| CC(C)NCC(O)c1ccc(O)c(O)c1 (centres unmarked) [isoprenternol] | second class of optical signatures |  |
| Cc1[nH]c(=O)c(C#N)cc1-c1ccncc1 [milrinone] |  | Effect of pretreatment on 32 nM EGF-induced response [2, 5]: None of these inhibitors had an obvious effect on the responses |
| CC[C@H](C)[C@H](NC(=O)[C@@H]1CCCN1C(=O)[C@@H](NC(=O)[C@@H](N)Cc1ccccc1)C(C)C)C(=O)N[C@@H](Cc1ccccc1)C(=O)N[C@H](C(=O)N[C@@H](Cc1ccc(O)cc1)C(=O)NCC(=O)N[C@@H](CCC(=O)O)C(=O)N[C@@H](CC(C)C)C(=O)N[C@@H](CCC(N)=O)C(=O)N[C@@H](CCCNC(=N)N)C(=O)N[C@@H](CCSC)C(=O)N[C@@H](CCC(N)=O)C(=O)N[C@@H](CCC(=O)O)C(=O)N[C@@H](CCCCN)C(=O)N[C@@H](CCC(=O)O)C(=O)N[C@@H](CCCNC(=N)N)C(=O)N[C@@H](CC(N)=O)C(=O)N[C@@H](CCCCN)C(=O)NCC(=O)N[C@@H](CCC(N)=O)C(=O)O)[C@@H](C)O [motilin] | did not exhibited any significant DMR signals |  |

| Compound | Class of optical signature (DMR) induced by agonist [1] | also measured |
| --- | --- | --- |
| Cc1cc(C(C)(C)C)c(O)c(C)c1CC1=NCCN1 [oxymetazoline] | did not exhibited any significant DMR signals |  |
| OC[C@H]1O[C@@H]2O[C@H]3[C@H](O)[C@@H](O)[C@@H](O[C@H]4[C@H](O)[C@@H](O)[C@@H](O[C@H]5[C@H](O)[C@@H](O)[C@@H](O[C@H]6[C@H](O)[C@@H](O)[C@@H](O[C@H]7[C@H](O)[C@@H](O)[C@@H](O[C@H]1[C@H](O)[C@H]2O)O[C@@H]7CO)O[C@@H]6CO)O[C@@H]5CO)O[C@@H]4CO)O[C@@H]3CO [αCD, α-cyclodextrin] |  | Effect of pretreatment on [Ca2+]i elevation mediated by trypsin or thrombin [3]: had no effect on both trypsin and thrombin-induced responses; Effect of pretreatment on DMR induced by thrombin or trypsin [4]: little effect on both agonist-induced DMR responses; Cell detachment ([4]; high doses (>10 mM)): resulted in significant amounts of cells detached from the surface of the biosensors |
| Angiotensin II (DRVYIHPF; Angiotensin-2; UniProt P01019 25-32, looked up) [agonist, AGTR1] | did not exhibited any significant DMR signals |  |
| R(−)-rolipram |  | Effect of pretreatment on 32 nM EGF-induced response [2, 5]: None of these inhibitors had an obvious effect on the responses |
| apelin 1-13 | did not exhibited any significant DMR signals |  |
| apelin 1-17 | did not exhibited any significant DMR signals |  |
| dynorphin A (YGGFLRRIRPKLKWDNQ; Dynorphin A(1-17); UniProt P01213 207-223, looked up) [agonist, OPRM1 and OPRK1] | did not exhibited any significant DMR signals |  |
| endothelin-1 (CSCSSLMDKECVYFCHLDIIW; ends and bridges not checked; cysteine pairing not given here; UniProt P05305 53-73, looked up) [agonist, EDNRA and EDNRB] | did not exhibited any significant DMR signals |  |
| glucagon | did not exhibited any significant DMR signals |  |
| growth hormone |  | Effect of pre-treatment on EGF-induced P-DMR and N-DMR signals [2]: significantly reduced both the binding and DMR signals |
| interferon-γ-inducible protein-10 [IP-10] | did not exhibited any significant DMR signals |  |
| interleukin-8 | did not exhibited any significant DMR signals |  |
| methyl-β-cyclodextrin [mβCD] |  | Effect of pretreatment on [Ca2+]i elevation mediated by trypsin or thrombin [3]: a dose-dependent suppression of [Ca^2+]i elevation mediated by either trypsin or thrombin; Effect of pretreatment on DMR induced by thrombin or trypsin [4]: a dose-dependent alteration of the optical signatures induced by thrombin or trypsin |
| neurokinin A (HKTDSFVGLM; ends and bridges not checked; UniProt P20366 98-107, looked up) [agonist, TACR2] | did not exhibited any significant DMR signals |  |
| neuromedin N (IPYIL; Neuromedin N; UniProt P30990 144-148, looked up) [agonist, NTSR1] | did not exhibited any significant DMR signals |  |
| neuropeptide Y | did not exhibited any significant DMR signals |  |
| oleoyl-L-α-lysophosphatidic acid [LPA] | third class of optical signatures | Dose-dependent switching of optical signature [1]: typical Gi-type optical signature at low doses of LPA; also recorded: switched to Gq-type optical signature at high doses of LPA |
| substance P (RPKPQQFFGLM; ends and bridges not checked; UniProt P20366 58-68, looked up) [agonist, TACR1] | did not exhibited any significant DMR signals |  |
